Laboratory results taken from PubChem BioAssay AID2060505 (Molecular Pharmacology Branch, DTP, NCI, 2025).

Test system: 633275-114-R-J1-PDC complex spheroids, viability
Experiment: Anticancer human tumor 633275-114-R-J1-PDC patient-derived endometrial adenocarcinoma cell line growth inhibition [GQUAD]
Details: for IC50: curve of first compound; for viability, T/C: stronger effect = lower value
How it was run: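 Multi-cell-type spheroids of tumor cells with HUVEC and mesenchymal stem cells, treated with drug combinations. Concentrations descend in half-log steps from near clinical Cmax, or from 10 microM where Cmax is unknown; viability read-out.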

[1] = second compound 0.0316 µM, first compound 0.0316 µM
[2] = second compound 0.0316 µM, first compound 0.1 µM
[3] = second compound 0.0316 µM, first compound 0.316 µM
[4] = second compound 0.0316 µM, first compound 1 µM
[5] = second compound 0.0316 µM, first compound 3.16 µM
[6] = second compound 0.0316 µM, first compound 10 µM
[7] = second compound 0.1 µM, first compound 0.0316 µM
[8] = second compound 0.1 µM, first compound 0.1 µM
[9] = second compound 0.1 µM, first compound 0.316 µM
[10] = second compound 0.1 µM, first compound 1 µM
[11] = second compound 0.1 µM, first compound 3.16 µM
[12] = second compound 0.1 µM, first compound 10 µM
[13] = second compound 0.316 µM, first compound 0.0316 µM
[14] = second compound 0.316 µM, first compound 0.1 µM
[15] = second compound 0.316 µM, first compound 0.316 µM
[16] = second compound 0.316 µM, first compound 1 µM
[17] = second compound 0.316 µM, first compound 3.16 µM
[18] = second compound 0.316 µM, first compound 10 µM
[19] = second compound 1 µM, first compound 0.0316 µM
[20] = second compound 1 µM, first compound 0.1 µM
[21] = second compound 1 µM, first compound 0.316 µM
[22] = second compound 1 µM, first compound 1 µM
[23] = second compound 1 µM, first compound 3.16 µM
[24] = second compound 1 µM, first compound 10 µM
[25] = second compound 3.16 µM, first compound 0.0316 µM
[26] = second compound 3.16 µM, first compound 0.1 µM
[27] = second compound 3.16 µM, first compound 0.316 µM
[28] = second compound 3.16 µM, first compound 1 µM
[29] = second compound 3.16 µM, first compound 3.16 µM
[30] = second compound 3.16 µM, first compound 10 µM
[31] = second compound 10 µM, first compound 0.0316 µM
[32] = second compound 10 µM, first compound 0.1 µM
[33] = second compound 10 µM, first compound 0.316 µM
[34] = second compound 10 µM, first compound 1 µM
[35] = second compound 10 µM, first compound 3.16 µM
[36] = second compound 10 µM, first compound 10 µM
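Note: spheroids exposed to the agents for seven days.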
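Throughout, for viability, T/C: percent of DMSO vehicle control viability which is 100%.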

O=C(NO)c1cnc(N2CCN(S(=O)(=O)c3ccc4ccccc4c3)CC2)nc1 + Cc1[nH]c2ccc(F)cc2c1-c1nc2c3cccnc3c3ncccc3c2[nH]1
IC50 (second compound 0.0316 µM): 371 nM | IC50 (second compound 0.1 µM): 527 nM | IC50 (second compound 0.316 µM): 574 nM | IC50 (second compound 1 µM): 492 nM | IC50 (second compound 3.16 µM): 336 nM | IC50 (second compound 10 µM): 362 nM | viability, T/C [1]: 88.1% | viability, T/C [2]: 77.9% | viability, T/C [3]: 51.7% | viability, T/C [4]: 29% | viability, T/C [5]: 16.9% | viability, T/C [6]: 5.26% | viability, T/C [7]: 91.7% | viability, T/C [8]: 83.9% | viability, T/C [9]: 63.5% | viability, T/C [10]: 32.1% | viability, T/C [11]: 16% | viability, T/C [12]: 3.49% | viability, T/C [13]: 82.3% | viability, T/C [14]: 86.2% | viability, T/C [15]: 62.4% | viability, T/C [16]: 34.7% | viability, T/C [17]: 18.5% | viability, T/C [18]: 1.56% | viability, T/C [19]: 91.3% | viability, T/C [20]: 77.2% | viability, T/C [21]: 57.9% | viability, T/C [22]: 37% | viability, T/C [23]: 17.2% | viability, T/C [24]: 1.48% | viability, T/C [25]: 72.3% | viability, T/C [26]: 60.2% | viability, T/C [27]: 52.6% | viability, T/C [28]: 35.2% | viability, T/C [29]: 15.8% | viability, T/C [30]: 2.67% | viability, T/C [31]: 62.1% | viability, T/C [32]: 58.3% | viability, T/C [33]: 54.8% | viability, T/C [34]: 32.5% | viability, T/C [35]: 17.8% | viability, T/C [36]: 3.92%

Nc1ccn(C2OC(CO)C(O)C2(F)F)c(=O)n1 (stereo not drawn) + CN(C)c1ccc(Nc2c3ccc(NC(=O)CCN4CCCC4)cc3nc3cc(NC(=O)CCN4CCCC4)ccc23)cc1
IC50 (second compound 0.0316 µM): < 31.6 nM | IC50 (second compound 0.1 µM): < 31.6 nM | IC50 (second compound 0.316 µM): < 31.6 nM | IC50 (second compound 1 µM): < 31.6 nM | IC50 (second compound 3.16 µM): < 31.6 nM | IC50 (second compound 10 µM): < 31.6 nM | viability, T/C [1]: 27.4% | viability, T/C [2]: 20.1% | viability, T/C [3]: 23.8% | viability, T/C [4]: 23.6% | viability, T/C [5]: 20.7% | viability, T/C [6]: 20.5% | viability, T/C [7]: 27.1% | viability, T/C [8]: 20.7% | viability, T/C [9]: 24% | viability, T/C [10]: 22.4% | viability, T/C [11]: 21.5% | viability, T/C [12]: 19.3% | viability, T/C [13]: 29.6% | viability, T/C [14]: 21% | viability, T/C [15]: 25.6% | viability, T/C [16]: 22.9% | viability, T/C [17]: 19.7% | viability, T/C [18]: 17.7% | viability, T/C [19]: 27.7% | viability, T/C [20]: 20.1% | viability, T/C [21]: 22% | viability, T/C [22]: 21.1% | viability, T/C [23]: 22.4% | viability, T/C [24]: 19.6% | viability, T/C [25]: 24.6% | viability, T/C [26]: 20.6% | viability, T/C [27]: 19.3% | viability, T/C [28]: 18.6% | viability, T/C [29]: 20.6% | viability, T/C [30]: 18.6% | viability, T/C [31]: 12.9% | viability, T/C [32]: 11.6% | viability, T/C [33]: 11.7% | viability, T/C [34]: 11.7% | viability, T/C [35]: 11% | viability, T/C [36]: 9%

COc1cccc2c1C(=O)c1c(O)c3c(c(O)c1C2=O)CC(O)(C(=O)CO)CC3OC1CC(N)C(O)C(C)O1 (stereo not drawn) + Cc1cnc(CNC(=O)c2c(=O)c3ccc(N4CCCN(C)CC4)nc3n3c2sc2ccccc23)cn1
IC50 (second compound 0.0316 µM): < 31.6 nM | IC50 (second compound 0.1 µM): < 31.6 nM | IC50 (second compound 0.316 µM): < 31.6 nM | IC50 (second compound 1 µM): < 31.6 nM | IC50 (second compound 3.16 µM): < 31.6 nM | IC50 (second compound 10 µM): < 31.6 nM | viability, T/C [1]: 47.7% | viability, T/C [2]: 44.6% | viability, T/C [3]: 34.8% | viability, T/C [4]: 19.2% | viability, T/C [5]: 1.21% | viability, T/C [6]: 1.57% | viability, T/C [7]: 47.7% | viability, T/C [8]: 43.1% | viability, T/C [9]: 33.9% | viability, T/C [10]: 19.1% | viability, T/C [11]: 0.53% | viability, T/C [12]: 1.49% | viability, T/C [13]: 44.1% | viability, T/C [14]: 39.7% | viability, T/C [15]: 30.2% | viability, T/C [16]: 14.3% | viability, T/C [17]: 0.1% | viability, T/C [18]: 1.32% | viability, T/C [19]: 41.4% | viability, T/C [20]: 35.2% | viability, T/C [21]: 30.6% | viability, T/C [22]: 16% | viability, T/C [23]: 0.1% | viability, T/C [24]: 0.65% | viability, T/C [25]: 33.8% | viability, T/C [26]: 32.2% | viability, T/C [27]: 25.4% | viability, T/C [28]: 11.2% | viability, T/C [29]: 0.14% | viability, T/C [30]: 0.46% | viability, T/C [31]: 31% | viability, T/C [32]: 28.8% | viability, T/C [33]: 24.5% | viability, T/C [34]: 4.52% | viability, T/C [35]: 0.19% | viability, T/C [36]: 0.43%

O=C(NO)c1cnc(N2CCN(S(=O)(=O)c3ccc4ccccc4c3)CC2)nc1 + CN(C)c1ccc(Nc2c3ccc(NC(=O)CCN4CCCC4)cc3nc3cc(NC(=O)CCN4CCCC4)ccc23)cc1
IC50 (second compound 0.0316 µM): 206 nM | IC50 (second compound 0.1 µM): 150 nM | IC50 (second compound 0.316 µM): 170 nM | IC50 (second compound 1 µM): 158 nM | IC50 (second compound 3.16 µM): 138 nM | IC50 (second compound 10 µM): < 31.6 nM | viability, T/C [1]: 75.1% | viability, T/C [2]: 64.9% | viability, T/C [3]: 40.4% | viability, T/C [4]: 22.8% | viability, T/C [5]: 11.5% | viability, T/C [6]: 4.89% | viability, T/C [7]: 68.3% | viability, T/C [8]: 58.4% | viability, T/C [9]: 35.5% | viability, T/C [10]: 19.6% | viability, T/C [11]: 10.5% | viability, T/C [12]: 5.36% | viability, T/C [13]: 80.9% | viability, T/C [14]: 62% | viability, T/C [15]: 35.7% | viability, T/C [16]: 20.1% | viability, T/C [17]: 12.1% | viability, T/C [18]: 4.98% | viability, T/C [19]: 70.1% | viability, T/C [20]: 58.3% | viability, T/C [21]: 37.9% | viability, T/C [22]: 18.3% | viability, T/C [23]: 12.2% | viability, T/C [24]: 5.49% | viability, T/C [25]: 62.6% | viability, T/C [26]: 55% | viability, T/C [27]: 37.5% | viability, T/C [28]: 15.6% | viability, T/C [29]: 9.85% | viability, T/C [30]: 2.65% | viability, T/C [31]: 30.4% | viability, T/C [32]: 26.4% | viability, T/C [33]: 16.3% | viability, T/C [34]: 6.49% | viability, T/C [35]: 1.21% | viability, T/C [36]: 0.19%
